Measurements: patent publication US20240018118A1, “TRICYCLIC COMPOUNDS TO DEGRADE NEOSUBSTRATES FOR MEDICAL THERAPY” (C 4 Therapeutics, Inc., priority 2020, published 2024)
pIC50: −log10 of the molar value. Read-outs that look alike come from different tables or passages of the source.

Assays:
GSPT1 = GSPT1 (Homo sapiens, UniProt P15170+Q96SW2); assay: HiBiT degradation assay, 293T.114 cells, GSPT1; format: cell-based; details: for DC50: read-out: HiBiT-Degradation 293T.114 GSPT1 6 hours DC50
Method: GSPT1 degradation was determined based on quantification of luminescent signal using Nano-Glo® HiBiT Lytic Assay kit. Test compounds were added to the 384-well plate from a top concentration of 10 μM with 5 points, 3-fold titration in quadruplicates. 293T.114 cells were added into 384-well plates at a cell density of 6000 cells per well. […] The cells treated in the absence of the test compound were the negative control and the cells without Nano-Glo® HiBiT Lytic reagent were the positive control. […] Luminescence was acquired on EnVision™ Multilabel Reader (PerkinElmer, Santa Clara, CA, USA).

SALL4 = SALL4 (Homo sapiens, UniProt Q96SW2+Q9UJQ4); assay: HiBiT degradation assay, KELLY.2 (SALL4-HiBiT) cells; format: cell-based; details: for DC50: KELLY.2 cells, 6 hours; for Emax: read-out: HiBiT-Degradation KELLY.2 SALL4 6 hours Emax, KELLY.2 cells
Sequence of SALL4 (Q9UJQ4 whole entry): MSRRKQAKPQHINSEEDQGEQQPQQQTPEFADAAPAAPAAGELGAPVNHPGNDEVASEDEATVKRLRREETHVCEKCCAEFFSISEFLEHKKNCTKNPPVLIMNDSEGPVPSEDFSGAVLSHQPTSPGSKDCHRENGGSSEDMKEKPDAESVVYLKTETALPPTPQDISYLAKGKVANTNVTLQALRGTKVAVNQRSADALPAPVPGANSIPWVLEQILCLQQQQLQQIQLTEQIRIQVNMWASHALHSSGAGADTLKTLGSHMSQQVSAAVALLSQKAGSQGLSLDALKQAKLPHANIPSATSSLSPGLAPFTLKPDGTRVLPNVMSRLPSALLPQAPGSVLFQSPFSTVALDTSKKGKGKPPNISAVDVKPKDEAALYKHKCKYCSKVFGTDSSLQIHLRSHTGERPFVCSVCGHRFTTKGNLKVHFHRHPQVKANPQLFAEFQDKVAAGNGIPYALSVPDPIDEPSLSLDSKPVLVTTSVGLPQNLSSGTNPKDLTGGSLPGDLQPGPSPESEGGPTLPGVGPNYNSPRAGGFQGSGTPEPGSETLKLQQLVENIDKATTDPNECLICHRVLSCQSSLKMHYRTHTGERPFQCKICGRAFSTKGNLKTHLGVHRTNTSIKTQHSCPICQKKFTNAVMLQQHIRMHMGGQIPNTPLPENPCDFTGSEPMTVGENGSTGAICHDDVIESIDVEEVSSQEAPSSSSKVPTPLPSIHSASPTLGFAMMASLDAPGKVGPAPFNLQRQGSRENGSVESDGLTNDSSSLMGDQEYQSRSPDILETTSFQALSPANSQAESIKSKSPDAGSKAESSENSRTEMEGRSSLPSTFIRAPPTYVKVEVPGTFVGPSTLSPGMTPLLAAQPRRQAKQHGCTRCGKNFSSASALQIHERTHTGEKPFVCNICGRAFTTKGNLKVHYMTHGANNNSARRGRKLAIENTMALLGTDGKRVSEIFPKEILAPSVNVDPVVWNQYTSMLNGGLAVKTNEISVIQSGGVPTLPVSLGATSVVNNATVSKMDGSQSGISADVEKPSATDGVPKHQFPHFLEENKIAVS
Sequence of SALL4 (Q96SW2 whole entry): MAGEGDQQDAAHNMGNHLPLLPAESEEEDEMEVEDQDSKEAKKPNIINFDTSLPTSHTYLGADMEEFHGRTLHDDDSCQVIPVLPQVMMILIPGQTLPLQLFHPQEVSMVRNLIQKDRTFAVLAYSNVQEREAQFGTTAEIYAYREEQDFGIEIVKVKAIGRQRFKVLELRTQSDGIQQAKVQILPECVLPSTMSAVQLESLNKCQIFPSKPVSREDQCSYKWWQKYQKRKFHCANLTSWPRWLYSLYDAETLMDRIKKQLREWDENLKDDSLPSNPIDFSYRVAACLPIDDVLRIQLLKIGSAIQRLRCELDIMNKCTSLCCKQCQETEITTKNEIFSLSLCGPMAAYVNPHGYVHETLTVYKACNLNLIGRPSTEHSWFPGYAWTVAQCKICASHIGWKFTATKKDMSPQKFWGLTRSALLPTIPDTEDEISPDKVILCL
Sequence of SALL4 (Q16531 2-1140 partner limits assumed): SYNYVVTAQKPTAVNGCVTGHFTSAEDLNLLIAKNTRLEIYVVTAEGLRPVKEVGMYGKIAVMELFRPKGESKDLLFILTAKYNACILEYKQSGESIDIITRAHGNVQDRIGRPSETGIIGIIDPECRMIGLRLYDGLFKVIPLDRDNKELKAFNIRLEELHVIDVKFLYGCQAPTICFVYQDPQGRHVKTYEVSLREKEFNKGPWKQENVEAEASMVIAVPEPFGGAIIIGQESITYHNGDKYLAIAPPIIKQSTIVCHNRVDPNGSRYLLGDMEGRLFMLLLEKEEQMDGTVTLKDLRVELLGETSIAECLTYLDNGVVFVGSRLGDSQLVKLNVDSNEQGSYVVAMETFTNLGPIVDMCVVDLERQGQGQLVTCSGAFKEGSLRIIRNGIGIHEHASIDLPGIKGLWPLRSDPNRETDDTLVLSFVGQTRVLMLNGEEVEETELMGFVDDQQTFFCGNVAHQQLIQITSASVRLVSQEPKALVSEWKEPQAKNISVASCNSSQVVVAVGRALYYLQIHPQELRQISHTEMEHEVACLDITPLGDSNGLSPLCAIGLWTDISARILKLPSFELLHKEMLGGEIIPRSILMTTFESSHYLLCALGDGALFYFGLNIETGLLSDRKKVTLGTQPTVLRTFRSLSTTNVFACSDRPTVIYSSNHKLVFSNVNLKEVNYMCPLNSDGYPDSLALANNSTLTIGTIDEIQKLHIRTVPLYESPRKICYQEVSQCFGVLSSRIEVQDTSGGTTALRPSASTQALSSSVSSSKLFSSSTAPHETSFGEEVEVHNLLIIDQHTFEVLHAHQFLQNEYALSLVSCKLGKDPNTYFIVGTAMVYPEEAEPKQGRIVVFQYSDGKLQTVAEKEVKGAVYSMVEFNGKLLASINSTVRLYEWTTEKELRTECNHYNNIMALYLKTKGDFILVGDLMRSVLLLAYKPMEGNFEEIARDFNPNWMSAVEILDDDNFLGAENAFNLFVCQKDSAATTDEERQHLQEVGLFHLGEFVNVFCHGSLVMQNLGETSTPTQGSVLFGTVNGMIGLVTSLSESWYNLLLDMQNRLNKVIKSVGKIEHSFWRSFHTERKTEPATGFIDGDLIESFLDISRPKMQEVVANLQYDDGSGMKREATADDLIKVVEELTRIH
Method: RPMI 1640 Medium without phenol red, fetal bovine serum (FBS), and Sodium Pyruvate (100 mM) were purchased from Gibco (Grand Island, NY, USA). Nano-Glo® HiBiT Lytic Assay System was purchased from Promega (Madison, WI, USA). […] Cell culture flasks and 384-well microplates were acquired from VWR (Radnor, PA, USA).
SALL4 degradation was determined based on quantification of luminescent signal using Nano-Glo® HiBiT Lytic Assay kit. Test compounds were added to the 384-well plate from a top concentration of 10 μM with 11 points, half log titration in duplicates. KELLY.2 cells were added into 384-well plates at a cell density of 6000 cells per well. The plates were kept at 37° C. with 5% CO2 for 6 hours. The cells treated in the absence of the test compound were the negative control and the cells without Nano-Glo® HiBiT Lytic reagent were the positive control. After 6-hour incubation, Nano-Glo® HiBiT Lytic Assay reagents were added to the cells. Luminescence was acquired on EnVision™ Multilabel Reader (PerkinElmer, Santa Clara, CA, USA).

IKZF1 = biological target: T1, IKZF1 (Homo sapiens, UniProt Q13422+Q96SW2); assay: HiBiT degradation assay, NCIH929.11 (HiBiT-IKZF1) cells; format: cell-based; details: for DC50: NCHI929.11 cells, 6 hours; for Emax: read-out: HiBiT-Degradation NCHI929.11 IKZF1 6 hours Emax, NCHI929.11 cells
T1 construct: endogenously expressing IKZF1 with HiBiT fusion tag via CRISPR; endogenous in cells; host or cells: NCIH929.11 (CRISPR knock-in)
T1 sequence (Q13422 whole entry, the tested form may be a part): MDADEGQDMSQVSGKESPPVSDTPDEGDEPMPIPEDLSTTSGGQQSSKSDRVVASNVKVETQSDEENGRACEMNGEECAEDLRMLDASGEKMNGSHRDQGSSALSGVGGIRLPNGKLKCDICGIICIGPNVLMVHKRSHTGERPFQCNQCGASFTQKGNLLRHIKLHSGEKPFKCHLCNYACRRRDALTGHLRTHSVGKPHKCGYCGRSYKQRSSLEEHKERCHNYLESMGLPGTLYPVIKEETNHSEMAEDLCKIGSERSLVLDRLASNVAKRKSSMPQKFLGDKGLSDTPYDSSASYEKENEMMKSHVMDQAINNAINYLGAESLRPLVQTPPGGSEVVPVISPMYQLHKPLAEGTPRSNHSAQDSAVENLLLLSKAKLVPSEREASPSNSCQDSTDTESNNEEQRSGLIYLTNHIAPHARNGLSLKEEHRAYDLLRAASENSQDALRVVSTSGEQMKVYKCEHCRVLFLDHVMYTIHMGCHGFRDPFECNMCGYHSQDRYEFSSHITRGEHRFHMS
T1 sequence (Q96SW2 whole entry, the tested form may be a part): as the sequence (Q96SW2 whole entry) above
T1 sequence (Q16531 2-1140 partner limits assumed): as the sequence (Q16531 2-1140 partner limits assumed) above
Method: RPMI no-phenol red medium and fetal bovine serum (FBS) were purchased from Gibco (Grand Island, NY, USA). Nano-Glo® HiBiT Lytic Assay System was purchased from Promega (Madison, WI, USA). NCIH929.11 (HiBiT-IKZF1) cell line was generated in house, endogenously expressing IKZF1 with HiBiT fusion tag via CRISPR. Cell culture flasks and 384-well microplates were acquired from VWR (Radnor, PA, USA).
IKZF 1 degradation was determined based on quantification of luminescent signal using Nano-Glo® HiBiT Lytic Assay kit. Test compounds were added to the 384-well plate from a top concentration of 10 μM with 11 points, half-log titration in duplicates. NCIH929.11 cells expressing HiBiT-tagged TKZF1 were added into 384-well plates in RPMI medium containing 10% FBS and 0.05 mM 2-mercaptoethanol at a cell density of 15000 cells per well. The plates were kept at 37° C. with […] for 6 hours. Cells treated in the absence of the test compound were the negative control and wells containing media only were the positive control. After 6-hour incubation, Nano-Glo® HiBiT Lytic Assay reagents were added to the designated wells. Luminescence was acquired on EnVision™ Multilabel Reader (PerkinElmer, Santa Clara, CA, USA).

CRBN = biological target: T2, CRBN (Homo sapiens, UniProt Q96SW2); assay: NanoBRET CRBN binding, 293T.116 cells; details: 2 hours
T2 construct: expressed in transfected cells; host or cells: 293T (line named 293T.116)
T2 sequence (Q96SW2 whole entry): as the sequence (Q96SW2 whole entry) above
T2 sequence (Q16531 2-1140 partner limits assumed): as the sequence (Q16531 2-1140 partner limits assumed) above

[1] = read-out: HiBiT-Degradation 293T.114 GSPT1 6 hours Emax, 293T.114 cells, 6 hours
[2] = read-out: GSPT1 Emax @ 10 μM 24 Hours, 24 hours

Sequence of GSPT1 (P15170 whole entry): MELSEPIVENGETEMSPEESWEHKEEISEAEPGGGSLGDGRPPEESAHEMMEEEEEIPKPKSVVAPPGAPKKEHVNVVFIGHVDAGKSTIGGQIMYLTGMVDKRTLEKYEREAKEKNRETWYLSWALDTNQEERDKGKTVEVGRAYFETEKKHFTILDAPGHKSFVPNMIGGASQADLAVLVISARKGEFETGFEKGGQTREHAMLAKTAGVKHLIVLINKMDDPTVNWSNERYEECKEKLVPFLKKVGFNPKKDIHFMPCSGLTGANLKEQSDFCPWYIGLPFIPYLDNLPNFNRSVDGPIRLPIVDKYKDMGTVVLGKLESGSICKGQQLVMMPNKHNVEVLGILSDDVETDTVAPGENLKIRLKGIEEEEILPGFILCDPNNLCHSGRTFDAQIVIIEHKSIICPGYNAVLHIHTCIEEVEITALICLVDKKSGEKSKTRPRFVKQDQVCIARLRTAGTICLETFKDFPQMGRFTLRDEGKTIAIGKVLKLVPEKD
Sequence of GSPT1 (Q96SW2 whole entry): as the sequence (Q96SW2 whole entry) above
Sequence of GSPT1 (Q16531 2-1140 partner limits assumed): as the sequence (Q16531 2-1140 partner limits assumed) above

| SMILES | DC50 (GSPT1; 293T.114 cells, 6 hours) [µM] | Emax (GSPT1; [1]) [%] | DC50 (SALL4) [µM] | Emax (SALL4) [%] | DC50 (IKZF1) [µM] | Emax (IKZF1) [%] | Emax (GSPT1; [2]) [%] | pIC50 (CRBN) |
| --- | --- | --- | --- | --- | --- | --- | --- | --- |
| CCOc1ccc(Cc2ccc3c4c(cccc24)N(C2CCC(=O)NC2=O)C3=O)cc1 (stereo not drawn) [Compound 68, 3-[5-[(4-ethoxyphenyl)methyl]-2-oxo-benzo[cd]indol-1-yl]piperidine-2,6-dione] | > 10 | 60 to 95 | > 10 | 60 to 95 | > 10 | 60 to 95 |  | > 7.00 |
| N#Cc1ccc(N2CCN(Cc3ccc(Cc4ccc5c6c(cccc46)C(=O)N5[C@H]4CCC(=O)NC4=O)cc3)CC2)c(F)c1 [Compound 78, (S)-4-(4-(4-((1-(2,6-dioxopiperidin-3-yl)-2-oxo-1,2-dihydrobenzo[cd]indol-6-yl)methyl)benzyl)piperazin-1-yl)-3-fluorobenzonitrile] | > 10 | 60 to 95 | < 0.1 | < 45 | < 0.1 | < 45 |  | > 7.00 |
| O=C1CCC(N2C(=O)c3cccc4c(Cc5cnn(C6CCN(C(=O)C7(C(F)(F)F)CCC7)CC6)c5)ccc2c34)C(=O)N1 (stereo not drawn) [Compound 201] | > 10 | > 95 | < 0.1 | < 45 |  |  |  | > 7.00 |
| CC(C)(C)OC(=O)N1CCC(n2cc(Cc3ccc4c5c(cccc35)C(=O)N4[C@H]3CCC(=O)NC3=O)cn2)CC1 [Compound 197, tert-butyl 4-[4-[[1-[(3S)-2,6-dioxo-3-piperidyl]-2-oxo-benzo[cd]indol-6-yl]methyl]pyrazol-1-yl]piperidine-1-carboxylate] | > 10 | 60 to 95 | < 0.1 | < 45 | < 0.1 | < 45 |  |  |
| N#CC1(C(=O)N2CCC(n3cc(Cc4ccc5c6c(cccc46)C(=O)N5C4CCC(=O)NC4=O)cn3)CC2)CCC1 (stereo not drawn) [Compound 200, 1-[4-[4-[[1-(2,6-dioxo-3-piperidyl)-2-oxo-benzo[cd]indol-6-yl]methyl]pyrazol-1-yl]piperidine-1-carbonyl]cyclobutanecarbonitrile] | > 10 | > 95 | < 0.1 | < 45 |  |  |  |  |
| CC1(n2cc(Cc3ccc4c5c(cccc35)C(=O)N4C3CCC(=O)NC3=O)cn2)CCN(C(=O)C2(C(F)(F)F)CC2)CC1 (stereo not drawn) [Compound 203] | > 10 | 60 to 95 | < 0.1 | < 45 |  |  |  | > 7.00 |
| CC1(n2cc(Cc3ccc4c5c(cccc35)C(=O)N4C3CCC(=O)NC3=O)cn2)CCN(c2ncccc2F)CC1 (stereo not drawn) [Compound 208, 3-[6-[[1-[1-(3-fluoro-2-pyridyl)-4-methyl-4-piperidyl]pyrazol-4-yl]methyl]-2-oxo-benzo[cd]indol-1-yl]piperidine-2,6-dione] | > 10 | 60 to 95 | < 0.1 | < 45 |  |  |  |  |
| CC1(n2cc(Cc3ccc4c5c(cccc35)C(=O)N4C3CCC(=O)NC3=O)cn2)CCN(C(=O)C2CC2)CC1 (stereo not drawn) [Compound 205] | > 10 | 60 to 95 | < 0.1 | < 45 |  |  |  | > 7.00 |
| O=C1CCC(N2C(=O)c3ccc(N4CCc5ccccc54)c4cccc2c34)C(=O)N1 (stereo not drawn) [Compound 209, 3-(5-indolin-1-yl-2-oxo-benzo[cd]indol-1-yl)piperidine-2,6-dione] | > 10 | 60 to 95 | < 0.1 | < 45 | > 10 | 60 to 95 |  |  |
| COc1ncc(CN2CCC(c3ccc4c5c(cccc35)N(C3CCC(=O)NC3=O)C4=O)CC2)cn1 (stereo not drawn) [Compound 177] | > 10 | 60 to 95 | > 10 | 60 to 95 |  |  |  | > 7.00 |
| COC(=O)c1ccc(Nc2ccc3cccc4c3c2C(=O)N4C2CCC(=O)NC2=O)cc1 (stereo not drawn) [Compound 186, Methyl 4-[[1-(2,6-dioxo-3-piperidyl)-2-oxo-benzo[cd]indol-3-yl]amino]benzoate] | > 10 | 60 to 95 | > 10 | 60 to 95 | > 10 | 60 to 95 |  |  |
| Cc1ccc(CN2CCC(c3ccc4c5c(cccc35)N(C3CCC(=O)NC3=O)C4=O)CC2)cc1F (stereo not drawn) [Compound 176] | > 10 | 60 to 95 | > 10 | 60 to 95 |  |  |  | > 7.00 |
| O=C1CCC(N2C(=O)c3ccc(CN4CC(Oc5ccccc5)C4)c4cccc2c34)C(=O)N1 (stereo not drawn) [Compound 63, 3-(2-oxo-5-((3-phenoxyazetidin-1-yl)methyl)benzo[cd]indol-1(2H)-yl)piperidine-2,6-dione] |  |  |  |  |  |  | < 45 |  |
| O=C1CCC(N2C(=O)c3cc(CNCc4ccco4)cc4cccc2c34)C(=O)N1 (stereo not drawn) [Compound 160] | > 10 | 45 to 60 |  |  |  |  |  |  |

Second part, the compound after the results:

| DC50 (GSPT1; 293T.114 cells, 6 hours) [µM] | Emax (GSPT1; [1]) [%] | DC50 (SALL4) [µM] | Emax (SALL4) [%] | DC50 (IKZF1) [µM] | Emax (IKZF1) [%] | Emax (GSPT1; [2]) [%] | pIC50 (CRBN) | SMILES |
| --- | --- | --- | --- | --- | --- | --- | --- | --- |
| > 0.1 | 60 to 95 | < 0.1 | < 45 |  |  |  |  | CC(NC(=O)c1ccc2c3c(ccnc13)N(C1CCC(=O)NC1=O)C2=O)c1ccccc1 (stereo not drawn) [Compound 185, 27-(2,6-dioxo-3-piperidyl)-20-oxo-N-(1-phenylethyl)-24,27-diazatricyclododeca-6,8(15),9(24),13(16),14(17)-pentaene-14-carboxamide] |
| > 10 | 60 to 95 | > 10 | 60 to 95 | > 10 | 60 to 95 | < 45 | > 7.00 | CCOc1ccc(Cc2ccc3c4c(cccc24)N(C2CCC(=O)NC2=O)C3=O)c(F)c1 (stereo not drawn) [Compound 60, 3-(5-(4-ethoxy-2-fluorobenzyl)-2-oxobenzo[cd]indol-1(2H)-yl)piperidine-2,6-dione] |
| > 10 | 60 to 95 | < 0.1 | < 45 |  |  |  | > 7.00 | CC1(n2cc(Cc3ccc4c5c(cccc35)C(=O)N4C3CCC(=O)NC3=O)cn2)CCN(C(=O)C2(C#N)CCCCC2)CC1 (stereo not drawn) [Compound 204] |
| > 0.1 | 60 to 95 | < 0.1 | < 45 |  |  |  |  | O=C1CCC(N2C(=O)c3ccc(C4(F)CCN(Cc5ccccc5)CC4)c4nccc2c34)C(=O)N1 (stereo not drawn) [Compound 81, 3-[18-(1-benzyl-4-fluoro-4-piperidyl)-24-oxo-27,30-diazatricyclododeca-5(17),6(18),7(19),8(27),20-pentaen-30-yl]piperidine-2,6-dione] |
| > 0.1 | 60 to 95 |  |  |  |  |  |  | CN(c1ccc2c3c(cccc13)N(C1CCC(=O)NC1=O)C2=O)C1CCN(Cc2ccccc2)C1 (stereo not drawn) [Compound 220] |
| > 0.1 | 60 to 95 | < 0.1 | < 45 |  |  |  |  | Cc1cc(C)nc(-c2ccc3c4c(cccc24)N(C2CCC(=O)NC2=O)C3=O)n1 (stereo not drawn) [Compound 87, 3-[5-(4,6-dimethylpyrimidin-2-yl)-2-oxo-benzo[cd]indol-1-yl]piperidine-2,6-dione] |
| > 0.1 | 60 to 95 | < 0.1 | < 45 |  |  |  |  | CN1CC(c2ccc3c4c(cccc24)N(C2CCC(=O)NC2=O)C3=O)C1 (stereo not drawn) [Compound 90, 3-[5-(1-methylazetidin-3-yl)-2-oxo-benzo[cd]indol-1-yl]piperidine-2,6-dione] |
